Reference: ChEMBL document CHEMBL5724914, “Linking interpersonal differences in gut microbiota composition and drug biotransformation activity” (2024)

Experiments:
[1] = (§1) The drug is tested on WLS-069 corresponding to human gut metagenome with ENA study accession number: PRJEB37062 and ENA sample accession number: ERS12561748 for biotransformation under anaerobic condition. The drug concentrations were measured over 9 timepoints collected between 0 and 24 hours of incubation by liquid-chromatography-coupled mass spectrometry (LC–MS); conditions: 2 µM
[2] = human gut metagenome, 24 h, 2 µM
[3] = human gut metagenome, 24 h, 2 µM; remark: listed apart in the source
[4] = as §1, with “WLS-090” for “WLS-069”, “ERS12561753” for “ERS12561748”; conditions: 2 µM
[5] = as §1, with “Z-030” for “WLS-069”, “mouse” for “human”, “ERS12561829” for “ERS12561748”; conditions: 2 µM
[6] = human gut metagenome, 24 h, 2 µM; remark: listed apart in the source
[7] = human gut metagenome, 24 h, 2 µM; remark: listed apart in the source
[8] = as §1, with “Z-019” for “WLS-069”, “rat” for “human”, “ERS12561818” for “ERS12561748”; conditions: 2 µM
[9] = human gut metagenome, 24 h, 2 µM; remark: listed apart in the source
[10] = human gut metagenome, 24 h, 2 µM; remark: listed apart in the source
[11] = as §1, with “WLS-039” for “WLS-069”, “ERS12561746” for “ERS12561748”; conditions: 2 µM
[12] = human gut metagenome, 24 h, 2 µM; remark: listed apart in the source
[13] = as §1, with “Z-012” for “WLS-069”, “to” for “to human gut”, “ERS12561812” for “ERS12561748”; conditions: 2 µM
[14] = human gut metagenome, 24 h, 2 µM; remark: listed apart in the source
[15] = human gut metagenome, 24 h, 2 µM; remark: listed apart in the source
[16] = human gut metagenome, 24 h, 2 µM; remark: listed apart in the source
[17] = as §1, with “WLS-310” for “WLS-069”, “ERS12561785” for “ERS12561748”; conditions: 2 µM
[18] = human gut metagenome, 24 h, 2 µM; remark: listed apart in the source
[19] = as §1, with “Z-029” for “WLS-069”, “rat” for “human”, “ERS12561828” for “ERS12561748”; conditions: 2 µM
[20] = human gut metagenome, 24 h, 2 µM; remark: listed apart in the source
Also: call rule not given here.

Row | Compound | Bacterial Biotransformation [1] | Bacterial Biotransformation [2] | Bacterial Biotransformation [3] | Bacterial Biotransformation [4] | Bacterial Biotransformation [5] | Bacterial Biotransformation [6] | Bacterial Biotransformation [7] | Bacterial Biotransformation [8] | Bacterial Biotransformation [9] | Bacterial Biotransformation [10] | Bacterial Biotransformation [11] | Bacterial Biotransformation [12] | Bacterial Biotransformation [13] | Bacterial Biotransformation [14] | Bacterial Biotransformation [15] | Bacterial Biotransformation [16] | Bacterial Biotransformation [17] | Bacterial Biotransformation [18] | Bacterial Biotransformation [19] | Bacterial Biotransformation [20]
1 | CCCN(CCC)CCc1cccc2c1CC(=O)N2 [ROPINIROLE] | Compound NOT metabolized | Compound NOT metabolized | Compound NOT metabolized | Compound metabolized | Compound NOT metabolized | Compound NOT metabolized | Compound NOT metabolized | Compound NOT metabolized | Compound metabolized | Compound NOT metabolized | Compound NOT metabolized | Compound metabolized | Compound metabolized | Compound NOT metabolized | Compound NOT metabolized | Compound NOT metabolized | Compound NOT metabolized | Compound NOT metabolized | Compound NOT metabolized | Compound NOT metabolized
2 | O=C(O)CCC(=O)O.O=C(O[C@H]1CN2CCC1CC2)N1CCc2ccccc2[C@@H]1c1ccccc1 [SOLIFENACIN SUCCINATE] | Compound metabolized | Compound metabolized | Compound NOT metabolized | Compound metabolized | Compound NOT metabolized | Compound NOT metabolized | Compound NOT metabolized | Compound NOT metabolized | Compound metabolized | Compound metabolized | Compound metabolized | Compound metabolized | Compound metabolized | Compound NOT metabolized | Compound NOT metabolized | Compound metabolized | Compound NOT metabolized | Compound metabolized | Compound NOT metabolized | Compound metabolized
3 | O=C(CCCN1CCC2(CC1)C(=O)NCN2c1ccccc1)c1ccc(F)cc1 [SPIPERONE] | Compound metabolized | Compound NOT metabolized | Compound NOT metabolized | Compound NOT metabolized | Compound NOT metabolized | Compound NOT metabolized | Compound NOT metabolized | Compound NOT metabolized | Compound metabolized | Compound NOT metabolized | Compound NOT metabolized | Compound metabolized | Compound NOT metabolized | Compound NOT metabolized | Compound NOT metabolized | Compound NOT metabolized | Compound metabolized | Compound NOT metabolized | Compound NOT metabolized | Compound NOT metabolized
4 | CCN(CC)CCNC(=O)c1cc(S(C)(=O)=O)ccc1OC [TIAPRIDE] | Compound NOT metabolized | Compound NOT metabolized | Compound NOT metabolized | Compound metabolized | Compound NOT metabolized | Compound NOT metabolized | Compound NOT metabolized | Compound NOT metabolized | Compound metabolized | Compound NOT metabolized | Compound NOT metabolized | Compound metabolized | Compound NOT metabolized | Compound NOT metabolized | Compound NOT metabolized | Compound NOT metabolized | Compound metabolized | Compound NOT metabolized | Compound NOT metabolized | Compound NOT metabolized

Now from value to molecule:

Row | Bacterial Biotransformation [1] | Bacterial Biotransformation [2] | Bacterial Biotransformation [3] | Bacterial Biotransformation [4] | Bacterial Biotransformation [5] | Bacterial Biotransformation [6] | Bacterial Biotransformation [7] | Bacterial Biotransformation [8] | Bacterial Biotransformation [9] | Bacterial Biotransformation [10] | Bacterial Biotransformation [11] | Bacterial Biotransformation [12] | Bacterial Biotransformation [13] | Bacterial Biotransformation [14] | Bacterial Biotransformation [15] | Bacterial Biotransformation [16] | Bacterial Biotransformation [17] | Bacterial Biotransformation [18] | Bacterial Biotransformation [19] | Bacterial Biotransformation [20] | Compound
5 | Compound metabolized | Compound NOT metabolized | Compound NOT metabolized | Compound metabolized | Compound NOT metabolized | Compound NOT metabolized | Compound NOT metabolized | Compound NOT metabolized | Compound metabolized | Compound NOT metabolized | Compound metabolized | Compound metabolized | Compound metabolized | Compound NOT metabolized | Compound NOT metabolized | Compound metabolized | Compound metabolized | Compound metabolized | Compound NOT metabolized | Compound metabolized | CN[C@H]1CC[C@@H](c2ccc(Cl)c(Cl)c2)c2ccccc21 [SERTRALINE]
6 | Compound metabolized | Compound metabolized | Compound metabolized | Compound metabolized | Compound NOT metabolized | Compound metabolized | Compound metabolized | Compound NOT metabolized | Compound metabolized | Compound metabolized | Compound metabolized | Compound metabolized | Compound NOT metabolized | Compound metabolized | Compound metabolized | Compound metabolized | Compound metabolized | Compound metabolized | Compound NOT metabolized | Compound metabolized | O=C1C(CC[S+]([O-])c2ccccc2)C(=O)N(c2ccccc2)N1c1ccccc1 (stereo not given) [SULFINPYRAZONE]
7 | Compound NOT metabolized | Compound NOT metabolized | Compound NOT metabolized | Compound metabolized | Compound NOT metabolized | Compound NOT metabolized | Compound NOT metabolized | Compound NOT metabolized | Compound metabolized | Compound NOT metabolized | Compound NOT metabolized | Compound metabolized | Compound NOT metabolized | Compound NOT metabolized | Compound NOT metabolized | Compound NOT metabolized | Compound NOT metabolized | Compound NOT metabolized | Compound NOT metabolized | Compound NOT metabolized | CCOc1ccccc1OCCN[C@H](C)Cc1ccc(OC)c(S(N)(=O)=O)c1.Cl [TAMSULOSIN HYDROCHLORIDE]
8 | Compound NOT metabolized | Compound NOT metabolized | Compound NOT metabolized | Compound metabolized | Compound NOT metabolized | Compound NOT metabolized | Compound NOT metabolized | Compound NOT metabolized | Compound metabolized | Compound NOT metabolized | Compound NOT metabolized | Compound metabolized | Compound NOT metabolized | Compound NOT metabolized | Compound NOT metabolized | Compound NOT metabolized | Compound NOT metabolized | Compound NOT metabolized | Compound NOT metabolized | Compound NOT metabolized | c1ccc2[nH]c(-c3cscn3)nc2c1 [THIABENDAZOLE]
